# Source: US11427544B2, “Histone deacetylase 6 inhibitors and use thereof” (TAIPEI MEDICAL UNIVERSITY, priority 2016, dated 2022)
# Tests used:
# [1] = system: scopolamine-induced memory deficit; experiment: Elevated plus maze test, scopolamine-treated rats; format: in vivo; details: gavage twice daily for seven days; scopolamine 1.5 mg/kg i.p.
# Protocol: An in vivo study was conducted to evaluate the efficacy of compounds of Formula (I) in improving memory deficits associated with Alzheimer's disease. Compound 12, Compound 28, suberanilohydroxamic acid (50 mg/kg) or vehicle was given to rats by gavage twice daily for seven days prior to behavioral experiments. On the day conducting a behavior assessment, rats in all groups except the control group were administered scopolamine (1.5 mg/kg) by intraperitoneal injection for 30 minutes before the assessment, then a water maze test or an elevated plus maze test was performed. […] The significant reduction in transfer latency time indicated improvement in memory.
# [2] = system: BJAB Burkitt lymphoma-derived B-cell; experiment: Tumor growth inhibition, BJAB xenograft; format: in vivo, athymic nude mice; details: qd, intraperitoneal
# Protocol: (§1) An in vivo study was conducted to evaluate the efficacy of compounds of Formula (I) in suppressing tumor growth in multiple human cancer types.
# (§2) Eight-week-old athymic nude mice were group-housed under conditions of constant photoperiod (12 h light/12 h dark at 21-23° C. and 60-85% humidity) with ad libitum access to sterilized food and water. All animal experiments followed ethical standards, and protocols were reviewed and approved by the Animal Use and Management Committee of National Taiwan University. Each mouse was inoculated subcutaneously with 1×10^6˜1×10^7 human cancer cells in a total volume of 0.1 mL serum-free medium containing 50% Matrigel (BD Biosciences). As tumors became established (˜100 mm^3), mice were randomized to various groups to be treated with pre-determined materials (n=6-8/group): (i) control group: 0.5% DMSO/0.5% Cremophor/90% D5W and (ii) treatment groups: Compounds 12 and 28 at pre-determined doses daily. Mice received treatment by intraperitoneal injection for the duration of the study. Tumors were measured weekly using calipers. Tumor size, in mm^3, was calculated according to the formula: Tumor volume=(w^2×l)/2, where w and 1 respectively represent the width and length (both in mm) of the tumor.
# [3] = system: scopolamine-induced memory deficit; experiment: Water maze test, scopolamine-treated rats; format: in vivo; details: gavage twice daily for seven days; scopolamine 1.5 mg/kg i.p.
# Protocol: An in vivo study was conducted to evaluate the efficacy of compounds of Formula (I) in improving memory deficits associated with Alzheimer's disease.
# Compound 12, Compound 28, suberanilohydroxamic acid (50 mg/kg) or vehicle was given to rats by gavage twice daily for seven days prior to behavioral experiments. On the day conducting a behavior assessment, rats in all groups except the control group were administered scopolamine (1.5 mg/kg) by intraperitoneal injection for 30 minutes before the assessment, then a water maze test or an elevated plus maze test was performed.
# [4] = system: RPMI-8226 Multiple myeloma; experiment: Tumor growth inhibition, RPMI-8226 xenograft; format: in vivo, athymic nude mice; details: 50 mg/kg, qd
# Protocol: as §1, §2
# [5] = target: T1, HDAC6 (Homo sapiens, UniProt Q9UBN7); experiment: Fluorogenic HDAC assay, HDAC6; format: biochemical
# T1 construct: purchased BPS Bioscience Corp
# T1 sequence (Q9UBN7 1-1215): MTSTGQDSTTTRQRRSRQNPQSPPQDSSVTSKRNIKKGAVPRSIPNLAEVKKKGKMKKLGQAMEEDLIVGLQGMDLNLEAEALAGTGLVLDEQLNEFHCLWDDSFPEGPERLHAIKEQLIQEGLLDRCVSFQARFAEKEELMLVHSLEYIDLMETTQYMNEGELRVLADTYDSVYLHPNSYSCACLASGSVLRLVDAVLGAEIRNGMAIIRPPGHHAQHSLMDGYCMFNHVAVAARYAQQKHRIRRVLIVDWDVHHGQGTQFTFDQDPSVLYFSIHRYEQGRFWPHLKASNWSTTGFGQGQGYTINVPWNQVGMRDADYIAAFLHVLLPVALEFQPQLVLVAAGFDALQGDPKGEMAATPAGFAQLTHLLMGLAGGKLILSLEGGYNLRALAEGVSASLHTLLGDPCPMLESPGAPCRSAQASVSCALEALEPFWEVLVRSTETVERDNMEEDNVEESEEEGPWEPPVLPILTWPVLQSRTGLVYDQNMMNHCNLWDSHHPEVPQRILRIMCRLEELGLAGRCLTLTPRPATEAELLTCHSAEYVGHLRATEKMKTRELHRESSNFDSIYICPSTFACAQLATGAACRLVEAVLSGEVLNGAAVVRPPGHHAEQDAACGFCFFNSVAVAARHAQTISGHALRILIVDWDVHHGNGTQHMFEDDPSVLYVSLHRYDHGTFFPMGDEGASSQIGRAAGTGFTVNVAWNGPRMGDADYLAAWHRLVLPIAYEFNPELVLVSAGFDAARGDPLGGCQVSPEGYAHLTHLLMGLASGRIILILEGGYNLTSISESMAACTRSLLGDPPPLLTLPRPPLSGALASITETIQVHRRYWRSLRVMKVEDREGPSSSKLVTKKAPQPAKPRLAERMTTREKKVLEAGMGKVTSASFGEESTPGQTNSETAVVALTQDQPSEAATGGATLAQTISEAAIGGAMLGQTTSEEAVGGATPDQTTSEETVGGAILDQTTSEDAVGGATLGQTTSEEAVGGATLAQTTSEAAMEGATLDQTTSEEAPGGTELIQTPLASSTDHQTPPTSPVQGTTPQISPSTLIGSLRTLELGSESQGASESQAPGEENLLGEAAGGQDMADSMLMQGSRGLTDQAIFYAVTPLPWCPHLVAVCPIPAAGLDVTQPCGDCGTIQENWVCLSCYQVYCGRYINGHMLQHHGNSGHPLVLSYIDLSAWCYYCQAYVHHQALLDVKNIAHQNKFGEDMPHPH
# Text: (§3) Of note, there are eighteen human HDACs. Eleven of them, designated as HDAC1-11, are zinc-dependent. Seven of them, designated as Sirt1-7, are NAD+-dependent.
# (§4) Fluorogenic HDAC assay kits were used to assess the ability of HDAC inhibitors to inhibit deacetylation of lysine residues on a substrate by recombinant proteins HDAC1, 3, 4, 5, 6, 7, 8, 9 and Sirt1 according to the manufacturer's instructions (BPS Bioscience Corp., San Diego, Calif., USA).
# [6] = target: T2, HDAC1 (Homo sapiens, UniProt Q13547); experiment: Fluorogenic HDAC assay, HDAC1; format: biochemical; details: recombinant HDAC1; read-out: Enzyme IC50 HDAC1
# T2 construct: purchased BPS Bioscience Corp
# Text: as §3, §4
# [7] = system: HL-60 Acute promyelocytic leukemia; experiment: Tumor growth inhibition, HL-60 xenograft; format: in vivo, athymic nude mice; details: qd, intraperitoneal
# Protocol: as §1, §2
# [8] = system: APP in pCAX APP 695 plasmid-transfected Neuro 2a cells; experiment: Amyloid precursor protein (APP) levels, Western blot; format: cell-based; details: pCAX APP 695 transfected neuro 2a cells; 0.1-10 μM, 24 hours
# Protocol: A study was conducted to evaluate the effect of compounds of Formula (I) in amyloid precursor protein (APP) levels and Aβ42 production.
# Neuro 2a cells (1×10^6) in 6-well plates were transfected with pCAX APP 695 plasmid for 24 hours, then incubated for another 24 hours with Compound 12, Compound 28, or tubasatin A (0.1-10 μM). Cells were then harvested and cell lysates were prepared for Western blot analysis of the APP proteins.
# T2 sequence (Q13547 whole entry): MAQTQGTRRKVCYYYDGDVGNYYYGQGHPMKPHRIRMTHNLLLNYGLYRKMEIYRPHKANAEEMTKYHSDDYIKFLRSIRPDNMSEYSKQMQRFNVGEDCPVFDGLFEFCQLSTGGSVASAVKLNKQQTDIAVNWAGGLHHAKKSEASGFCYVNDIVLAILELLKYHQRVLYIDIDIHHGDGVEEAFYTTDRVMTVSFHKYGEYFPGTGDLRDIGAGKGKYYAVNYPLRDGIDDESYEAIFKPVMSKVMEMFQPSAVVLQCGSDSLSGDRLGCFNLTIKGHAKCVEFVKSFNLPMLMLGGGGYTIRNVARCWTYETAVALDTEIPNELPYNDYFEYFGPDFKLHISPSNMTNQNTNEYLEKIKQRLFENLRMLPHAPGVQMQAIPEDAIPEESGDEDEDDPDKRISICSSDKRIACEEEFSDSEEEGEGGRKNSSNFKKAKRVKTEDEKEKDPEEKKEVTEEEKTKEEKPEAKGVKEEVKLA
structure (smiles),measurement,setting,value
"O=C(NO)c1ccc(CNc2cccc3cccnc23)cc1 [Compound 28, N-hydroxy-4-((quinolin-8-ylamino)methyl)benzamide]",transfer latency time (elevated plus maze),[1],significantly rescued scopolamine-mediated increase of transfer latency time
same,% TGI,[2]; 25 mg/kg,40.8%
same,% TGI,[2]; 50 mg/kg,74.0%
same,time spent in the correct quadrant (water maze),[3],markedly reverse this effect
same,Best Response,[4]; CR: complete regression,2 × CR^a
same,% TGI,[4]; intraperitoneal,80.0%
same,IC50,[5],0.00441 µM
same,IC50,[6],6.7 µM
same,% TGI,[7]; 25 mg/kg,47.4%
same,% TGI,[7]; 50 mg/kg,61.1%
same,APP expression,[8],markedly reduced the APP expression
